Laboratory results: publication PMC10535856, “CD4^+ T Cell Responses to Toxoplasma gondii Are a Double-Edged Sword” (Vaccines, 2023)
Where no end group is shown, it is not given here.

What was measured:
[1] = system: Toxoplasma gondii tachyzoites and encysted bradyzoites; details: cited from earlier work
[2] = system: uninfected HLA-A*11:01 transgenic mice; test: Mortality and tolerability after boost immunization; assay type: in vivo, mouse
I-A^b [3] = biological target: T1, I-A^b (Mus musculus, UniProt P14434+P14483); test: Competitive peptide binding to I-A^b; details: competitive binding study, procedure of ref 51; 'bound weakly'
T1 sequence (P14434 24-256): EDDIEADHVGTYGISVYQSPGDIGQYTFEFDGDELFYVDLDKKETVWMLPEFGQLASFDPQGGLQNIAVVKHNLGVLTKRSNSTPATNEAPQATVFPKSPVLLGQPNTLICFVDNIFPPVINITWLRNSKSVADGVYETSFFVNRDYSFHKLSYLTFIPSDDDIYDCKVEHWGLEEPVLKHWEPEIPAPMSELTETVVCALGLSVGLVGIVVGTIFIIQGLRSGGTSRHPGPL
T1 sequence (P14483 28-265): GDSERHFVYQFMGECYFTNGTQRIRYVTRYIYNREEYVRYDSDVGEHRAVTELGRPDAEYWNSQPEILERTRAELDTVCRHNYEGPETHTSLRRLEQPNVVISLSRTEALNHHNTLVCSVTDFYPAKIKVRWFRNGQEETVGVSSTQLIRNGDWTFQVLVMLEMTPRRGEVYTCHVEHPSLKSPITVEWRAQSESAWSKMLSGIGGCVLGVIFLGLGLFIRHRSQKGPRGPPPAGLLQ

I-A^b [4] = biological target: T1, I-A^b; design: method as in PMID 7895164, PMID 32763137; details: cited from earlier work
CD4^+ T cells = details: in vitro human PBMCs and in vivo mice; cited from earlier work
From the text: Vaccines that are composed of polypeptides that elicit epitope-restricted CD4^+ and CD8^+ T cells have the potential to induce an immune response against human toxoplasmic infection in humans. We are building a rational “immunosense” approach that utilizes epitope selection for peptides that can be presented by human major histocompatibility complexes (MHCs) to elicit protective CD8^+ and CD4^+ T cells. We have made considerable efforts to iden ...

## CCc1nc(N)nc(N)c1-c1ccc(Cl)cc1 [Pyrimethamine]
[1]
  Activity against actively replicating tachyzoites: effective against actively replicating tachyzoites
  Elimination of encysted bradyzoites: cannot eliminate encysted bradyzoites

## Nc1ccc(S(=O)(=O)Nc2ncccn2)cc1 [sulfadiazine]
[1]
  Activity against actively replicating tachyzoites: effective against actively replicating tachyzoites
  Elimination of encysted bradyzoites: cannot eliminate encysted bradyzoites

## AVEIHRPVPGTAPPS [AS15, AVEIHRPVPGTAPPS]
[2]; AS15 or GLA-SE alone
  Harmful response to single components: neither AS15 nor GLA-SE alone elicit this harmful response
[2]; Figure S1, single components
  Overall effect in summary cartoon: No effect
I-A^b [3]
  IC50: 413 nM

## AKFVAAWTLKAAA [PADRE]
I-A^b [4]
  Affinity to I-A^b: relatively high affinity
CD4^+ T cells
  Generation of responsive CD4^+ T cells: contributes to the generation of responsive CD4^+ T cells
